In patent US20230365592A1 (Agios Pharmaceuticals, Inc., priority 2022, published 2023) one finds AC50 data, which are given here for 14 molecules.

Bounds are passed on as bounds.

The target in the first test is T1, human PAH with the R408W mutation (Homo sapiens, UniProt P00439, R408W).
T1 construct: expressed in transfected cells
T1 sequence (P00439 1-452 R408W): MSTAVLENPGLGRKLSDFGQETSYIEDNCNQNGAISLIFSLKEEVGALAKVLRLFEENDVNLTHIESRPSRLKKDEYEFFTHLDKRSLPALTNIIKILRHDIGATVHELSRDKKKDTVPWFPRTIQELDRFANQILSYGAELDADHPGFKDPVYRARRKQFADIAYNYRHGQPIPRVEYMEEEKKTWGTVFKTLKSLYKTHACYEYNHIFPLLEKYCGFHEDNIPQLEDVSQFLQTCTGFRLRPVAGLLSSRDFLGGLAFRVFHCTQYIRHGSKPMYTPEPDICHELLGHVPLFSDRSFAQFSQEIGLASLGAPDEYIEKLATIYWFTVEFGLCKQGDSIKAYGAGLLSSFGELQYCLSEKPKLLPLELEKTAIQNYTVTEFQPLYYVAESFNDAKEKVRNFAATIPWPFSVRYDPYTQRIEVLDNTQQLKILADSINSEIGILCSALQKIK
Briefly: Cell Based Phenylalanine Flux Assay.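 Further: after compound treatment, cells received sepiapterin plus isotope-labelled Phenylalanine for 4 hours, then labelled Tyrosine in the medium was quantified, 10-point 2-fold dilution series run in duplicate.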 To be noted: A375 cells expressing R408W PAH; 24 hrs with compound, then 20 µM sepiapterin and 800 µM 13C9,15N-Phenylalanine for 4 hours; 13C-Tyrosine by LC-MS; average where tested multiple times; read-out: AC50.
A word on the AC50: it is the midpoint of the concentration-response curve, whichever way the signal moves. With `CC(C)(O)c1nnc(C(=O)N2CCc3[nH]cnc3C2c2cc3cccc(C(F)F)n3n2)o1` (centres unmarked), the AC50 lay in the range of 1000 to 5000 nM. Still for that read-out and setting: the result for `O=C(c1cnn(-c2ccccn2)c1Cl)N1CCc2[nH]cnc2C1c1cc2ccccn2n1` (centres unmarked) reads 1000 to 5000 nM. Regarding `CN(C)Cc1ccc2c(C(=O)N3CCc4[nH]cnc4C3c3cc4cccc(F)n4n3)cnn2c1` (centres unmarked), the half-maximal activity concentration (AC50) fell in the range of 1000 to 5000 nM.

On to `CC(C)(F)c1nnc(C(=O)N2CCc3[nH]cnc3C2c2cc3cc(F)ccn3n2)o1` (single isomer, unassigned), for which the AC50 lay within 1000 to 5000 nM.

The test is the same for the next values; noted with them: A375 cells expressing human PAH R408W; 24 hrs compound incubation; 13C-Tyrosine by LC-MS; average where tested multiple times; read-out: AC50.
Turning to `O=C(c1ocnc1C(F)F)N1CCc2[nH]cnc2[C@H]1c1cc2cc(F)ccn2n1` [Example 2400, (S)-(4-(difluoromethyl)oxazol-5-yl)(4-(5-fluoropyrazolo[1,5-a]pyridin-2-yl)-6,7-dihydro-1H-imidazo[4,5-c]pyridin-5(4H)-yl)methanone], the AC50 is less than 500 nM. Same read-out and setting: the figure for `COc1cccn2nc([C@@H]3c4nc[nH]c4CCN3C(=O)c3nc(C)nn3C)cc12` [Example 2393, (S)-(1,3-dimethyl-1H-1,2,4-triazol-5-yl)(4-(4-methoxypyrazolo[1,5-a]pyridin-2-yl)-6,7-dihydro-1H-imidazo[4,5-c]pyridin-5(4H)-yl)methanone] is 1000 to 5000 nM; for `Cn1cc(-c2ccc3c(C(=O)N4CCc5[nH]cnc5[C@H]4c4cc5c(F)cccn5n4)cnn3c2)cn1` [Example 2434, (S)-(4-(4-fluoropyrazolo[1,5-a]pyridin-2-yl)-6,7-dihydro-1H-imidazo[4,5-c]pyridin-5(4H)-yl)(6-(1-methyl-1H-pyrazol-4-yl)pyrazolo[1,5-a]pyridin-3-yl)methanone] it is 1000 to 5000 nM; for `Cc1nnc(N2CCc3[nH]cnc3[C@H]2c2cc3c(C4CC4)cccn3n2)o1` [Example 2187, (S)-2-(4-(4-cyclopropylpyrazolo[1,5-a]pyridin-2-yl)-1,4,6,7-tetrahydro-5H-imidazo[4,5-c]pyridin-5-yl)-5-methyl-1,3,4-oxadiazole] it is less than 500 nM. Same read-out and setting: the result for `O=C(C1CCC1)N1CCc2[nH]cnc2[C@H]1c1cc2c(F)cccn2n1` [Example 2080, (S)-cyclobutyl(4-(4-fluoropyrazolo[1,5-a]pyridin-2-yl)-1,4,6,7-tetrahydro-5H-imidazo[4,5-c]pyridin-5-yl)methanone] reads less than 500 nM; that for `O=C(c1nnc(-c2cncnc2)o1)N1CCc2[nH]cnc2[C@H]1c1cc2c(F)cccn2n1` [Example 1974, (S)-(4-(4-fluoropyrazolo[1,5-a]pyridin-2-yl)-1,4,6,7-tetrahydro-5H-imidazo[4,5-c]pyridin-5-yl)(5-(pyrimidin-5-yl)-1,3,4-oxadiazol-2-yl)methanone], 500 to 1000 nM.

Still in this test, the particulars now being: A375 cells expressing human R408W PAH; 24 hrs compound incubation; 13C-Tyrosine by LC-MS; average where tested multiple times; read-out: AC50.
With `CC(C)n1nccc1C(=O)N1CCc2[nH]cnc2[C@H]1c1cc2c(F)cccn2n1` [Example 858, (S)-(4-(4-fluoropyrazolo[1,5-a]pyridin-2-yl)-6,7-dihydro-1H-imidazo[4,5-c]pyridin-5(4H)-yl)(1-isopropyl-1H-pyrazol-5-yl)methanone], the AC50 was less than 500 nM.

With `COc1ccc(-c2nnc(C(=O)N3CCc4[nH]cnc4[C@@H]3c3cc4cccc(F)n4n3)o2)nc1` [Example 1524, (R)-(4-(7-fluoropyrazolo[1,5-a]pyridin-2-yl)-6,7-dihydro-1H-imidazo[4,5-c]pyridin-5(4H)-yl)(5-(5-methoxypyridin-2-yl)-1,3,4-oxadiazol-2-yl)methanone], the AC50 was greater than 5000 nM. With `Cc1nn(C)cc1-c1nnc(C(=O)N2CCc3[nH]cnc3[C@@H]2c2cc3cccc(C(F)F)n3n2)o1` [Example 1583, (R)-(4-(7-(difluoromethyl)pyrazolo[1,5-a]pyridin-2-yl)-6,7-dihydro-1H-imidazo[4,5-c]pyridin-5(4H)-yl)(5-(1,3-dimethyl-1H-pyrazol-4-yl)-1,3,4-oxadiazol-2-yl)methanone], the AC50 is greater than 5000 nM.

`O=C(c1nnc(-c2ccccn2)o1)N1CCc2[nH]cnc2[C@H]1c1cc2cccc(Cl)n2n1` [Example 1042, (S)-(4-(7-chloropyrazolo[1,5-a]pyridin-2-yl)-6,7-dihydro-1H-imidazo[4,5-c]pyridin-5(4H)-yl)(5-(pyridin-2-yl)-1,3,4-oxadiazol-2-yl)methanone]: the AC50 is less than 500 nM.
